The values that follow come from US10787442B2, “Modulators of indoleamine 2,3-dioxygenase” (GLAXOSMITHKLINE INTELLECTUAL PROPERTY DEVELOPMENT LIMITED, priority 2016, dated 2020).

The subject of the data set is human epithelial HeLa cells. The experiment in a line: HeLa cytotoxicity assay (CellTiter-Glo). The class given is cell-based. Particulars: cytotoxicity in stimulated HeLa cells, recorded as pCC50. The protocol:
Compounds of the present invention were tested via high-throughput cellular assays utilizing detection of kynurenine via mass spectrometry and cytotoxicity as end-points. […] Compounds with IDO1 inhibitory properties decreased the amount of kynurenine produced by the cells via the tryptophan catabolic pathway. Cellular toxicity due to the effect of compound treatment was measured using CellTiter-Glo® reagent (CTG) (Promega Corporation, Madison, Wis.), which is based on luminescent detection of ATP, an indicator of metabolically active cells.
In preparation for the assays, test compounds were serially diluted 3-fold in DMSO from a typical top concentration of 1 mM or 5 mM and plated at 0.5 μL in 384-well, polystyrene, clear bottom, tissue culture treated plates with lids (Greiner Bio-One, Kremsmünster, Austria) to generate 11-point dose response curves. Low control wells (0% kynurenine or 100% cytotoxicity) contained either 0.5 μL of DMSO in the presence of unstimulated (−IFN-γ) HeLa cells for the mass spectrometry assay or 0.5 μL of DMSO in the absence of cells for the cytotoxicity assay, and high control wells (100% kynurenine or 0% cytotoxicity) contained 0.5 μL of DMSO in the presence of stimulated (+IFN-γ) HeLa cells for both the mass spectrometry and cytotoxicity assays.
Frozen stocks of HeLa cells were washed and recovered in DMEM high glucose medium with HEPES (Thermo Fisher Scientific, Inc., Waltham, Mass.) supplemented with 10% v/v certified fetal bovine serum (FBS) (Thermo Fisher Scientific, Inc., Waltham, Mass.), and 1× penicillin-streptomycin antibiotic solution (Thermo Fisher Scientific, Inc., Waltham, Mass.). The cells were diluted to 100,000 cells/mL in the supplemented DMEM medium. 50 μL of either the cell suspension, for the mass spectrometry assay, or medium alone, for the cytotoxicity assay, were added to the low control wells, on the previously prepared 384-well compound plates, resulting in 5,000 cells/well or 0 cells/well respectively. IFN-γ was added to the remaining cell suspension at a final concentration of 10 nM, and 50 μL of the stimulated cells were added to all remaining wells on the 384-well compound plates. The plates, with lids, were then placed in a 37° C., 5% CO2 humidified incubator for 2 days.
Following incubation, the 384-well plates were removed from the incubator and allowed to equilibrate to room temperature for 30 minutes. For the cytotoxicity assay, CellTiter-Glo® was prepared according to the manufacturer's instructions, and 10 μL were added to each plate well. After a twenty minute incubation at room temperature, luminescence was read on an EnVision® Multilabel Reader (PerkinElmer Inc., Waltham, Mass.). For the mass spectrometry assay, 10 μL of supernatant from each well of the compound-treated plates were added to 40 μL of acetonitrile, containing 10 μM of an internal standard for normalization, in 384-well, polypropylene, V-bottom plates (Greiner Bio-One, Kremsmünster, Austria) to extract the organic analytes. Following centrifugation at 2000 rpm for 10 minutes, 10 μL from each well of the acetonitrile extraction plates were added to 90 μL of sterile, distilled H2O in 384-well, polypropylene, V-bottom plates for analysis of kynurenine and the internal standard on the RapidFire 300 (Agilent Technologies, Santa Clara, Calif.) and 4000 QTRAP MS (SCIEX, Framingham, Mass.). MS data were integrated using Agilent Technologies' RapidFire Integrator software, and data were normalized for analysis as a ratio of kynurenine to the internal standard.
A general note: ATP-based viability assays read luminescence as a measure of living cells.

For the compound `CC(C)CN(c1ncc([C@H](C)CC(=O)O)cc1Nc1ccc(Cl)cn1)C1CCOCC1` [Example 6, (R)-3-(5-((5-chloropyridin-2-yl)amino)-6-(isobutyl(tetrahydro-2H-pyran-4-yl)amino)pyridin-3-yl)butanoic acid], the HELA_IDO1_TOX_PXC50 is reported as <5.
